Reference: ChEMBL document CHEMBL5050844 (2019)

Experiments:
[1] = Induction of anti-CD3 antibodies-stimulated human exhausted CD8+ T cell activation assessed fold increase in CTLA4 expression measured by flow cytometry analysis; format: functional, T cell line
[2] = Induction of anti-CD3 antibodies-stimulated human exhausted T cell activation assessed fold increase in GM-CSF secretion measured by ELISA assay; format: functional, T cell line
[3] = Induction of anti-CD3 antibodies-stimulated human T cell activation at 1 uM assessed fold increase in CD25 expression measured by ELISA assay; format: functional, T cell line
[4] = Induction of anti-CD3 antibodies-stimulated human CD8+ T cell activation at 1.11 uM assessed fold increase in cell proliferation measured by flow cytometry analysis; format: functional, T cell line
[5] = Induction of anti-CD3 antibodies-stimulated human T cell activation at 1.11 uM assessed fold increase in IFN-gamma secretion measured by ELISA assay; format: functional, T cell line
[6] = Induction of anti-CD3 antibodies-stimulated human T cell activation at 10 uM assessed fold increase in GM-CSF secretion measured by ELISA assay; format: functional, T cell line
[7] = Induction of anti-CD3 antibodies-stimulated human CD8+ T cell activation in immunocompetent mouse assessed fold increase in CD25 expression at 90 mg/kg, po administered twice a day; format: functional
[8] = Induction of anti-CD3 antibodies-stimulated human T cell activation at 1.11 uM assessed fold increase in GM-CSF secretion measured by ELISA assay; format: functional, T cell line
[9] = Induction of anti-CD3/CD28 antibodies-stimulated human CD8+ T cell activation at 1.11 uM assessed fold increase in cell proliferation measured by flow cytometry analysis; format: functional, T cell line
[10] = Induction of anti-CD3/CD28 antibodies-stimulated human T cell activation at 1 uM assessed fold increase in CD25 expression measured by ELISA assay; format: functional, T cell line
[11] = Induction of anti-CD3 antibodies-stimulated human CD8+ T cell activation at 10 uM assessed fold increase in CD69 expression measured by flow cytometry analysis; format: functional, T cell line
[12] = Induction of anti-CD3 antibodies-stimulated human CD4+ T cell activation in immunocompetent mouse assessed fold increase in CD25 expression at 180 mg/kg, po administered twice a day; format: functional
[13] = Induction of anti-CD3 antibodies-stimulated human CD8+ T cell activation in immunocompetent mouse assessed fold increase in CD25 expression at 90 mg/kg, ip administered thrice a day; format: functional
[14] = Induction of anti-CD3/CD28 antibodies-stimulated human CD4+ T cell activation at 10 uM assessed fold increase in cell proliferation measured by flow cytometry analysis; format: functional, T cell line
[15] = Induction of anti-CD3/CD28 antibodies-stimulated human T cell activation at 0.3 uM assessed fold increase in CD25 expression measured by ELISA assay; format: functional, T cell line
[16] = Induction of anti-CD3 antibodies-stimulated human CD8+ T cell activation in immunocompetent mouse assessed fold increase in CD25 expression at 180 mg/kg, po administered twice a day; format: functional
[17] = Induction of anti-CD3 antibodies-stimulated human CD4+ T cell activation in immunocompetent mouse assessed fold increase in CD25 expression at 90 mg/kg, po administered twice a day; format: functional
[18] = Induction of anti-CD3/CD28 antibodies-stimulated human anergic T cell activation at 1.11 uM assessed fold increase in IFN-gamma secretion measured by ELISA assay; format: functional, T cell line
[19] = Induction of activation of human CD56+ CD3- NK cells co-cultured with human K562 cells in 1:1 ratio and assessed as increase in TNF-alpha secretion at 10 uM measured by ELISA assay; format: functional, Natural killer cell
[20] = target: T1, E3 ubiquitin-protein ligase CBL-B (Homo sapiens, UniProt Q13191); assay: Inhibition of N-terminal Avi-tagged human CBL-B (36 to 427 residues) incubated with 60 nM Src kinase for 1.5 hrs followed by incubation with fluorescently labeled UbcH5B-Ub for 1 hr and measured by TR-FRET assay; format: single protein
[21] = Induction of anti-CD3 antibodies-stimulated human CD8+ T cell activation at 1.11 uM assessed fold increase in CD69 expression measured by flow cytometry analysis; format: functional, T cell line
[22] = Induction of anti-CD3 antibodies-stimulated human CD8+ T cell activation in immunocompetent mouse assessed fold increase in CD25 expression at 135 mg/kg, po administered twice a day; format: functional
[23] = Induction of anti-CD3 antibodies-stimulated human CD4+ T cell activation in immunocompetent mouse assessed fold increase in CD25 expression at 135 mg/kg, po administered twice a day; format: functional
[24] = target: T1, E3 ubiquitin-protein ligase CBL-B; assay: Binding affinity towards N-terminal biotinylated Avi-tagged human CBL-B (36 to 427 residues) measured by surface plasmon resonance assay

T1 sequence (Q13191 whole entry, the tested form may be a part): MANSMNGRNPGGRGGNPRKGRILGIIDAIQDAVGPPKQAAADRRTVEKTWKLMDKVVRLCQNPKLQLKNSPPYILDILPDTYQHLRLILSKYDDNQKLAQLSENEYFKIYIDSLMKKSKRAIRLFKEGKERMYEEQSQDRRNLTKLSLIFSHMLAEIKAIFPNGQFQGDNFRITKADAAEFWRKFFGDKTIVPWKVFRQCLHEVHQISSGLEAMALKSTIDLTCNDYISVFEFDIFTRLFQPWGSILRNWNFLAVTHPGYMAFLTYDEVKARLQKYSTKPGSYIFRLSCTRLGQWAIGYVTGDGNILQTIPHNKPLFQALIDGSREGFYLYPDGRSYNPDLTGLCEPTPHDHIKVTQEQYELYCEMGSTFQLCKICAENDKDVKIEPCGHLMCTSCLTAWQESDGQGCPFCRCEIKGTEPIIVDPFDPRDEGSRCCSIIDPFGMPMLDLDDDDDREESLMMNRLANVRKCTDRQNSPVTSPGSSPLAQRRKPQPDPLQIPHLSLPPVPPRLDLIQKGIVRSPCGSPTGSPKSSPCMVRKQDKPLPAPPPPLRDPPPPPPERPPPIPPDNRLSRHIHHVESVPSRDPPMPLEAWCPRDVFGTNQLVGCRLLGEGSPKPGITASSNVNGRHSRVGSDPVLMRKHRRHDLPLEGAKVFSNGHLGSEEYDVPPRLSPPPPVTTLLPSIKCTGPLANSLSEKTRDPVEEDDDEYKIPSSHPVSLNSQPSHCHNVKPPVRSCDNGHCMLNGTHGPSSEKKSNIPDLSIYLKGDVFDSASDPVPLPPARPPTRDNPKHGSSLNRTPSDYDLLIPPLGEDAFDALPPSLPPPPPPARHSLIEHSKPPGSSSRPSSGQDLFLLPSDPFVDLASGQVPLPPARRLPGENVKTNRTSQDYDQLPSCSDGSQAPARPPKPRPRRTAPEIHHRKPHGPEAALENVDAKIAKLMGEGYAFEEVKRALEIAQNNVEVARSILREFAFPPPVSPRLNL

SMILES | fold change (FC) [1] | fold change (FC) [2] | fold change (FC) [3] | fold change (FC) [4] | fold change (FC) [5] | fold change (FC) [6] | fold change (FC) [7] | fold change (FC) [8] | fold change (FC) [9] | fold change (FC) [10] | fold change (FC) [11] | fold change (FC) [12] | fold change (FC) [13] | fold change (FC) [14] | fold change (FC) [15] | fold change (FC) [16] | fold change (FC) [17] | fold change (FC) [18] | fold change (FC) [19] | fold change (FC) [21] | further results
C[C@@H](c1cc2c(c(C(F)(F)F)c1)CN(c1cccc(C3(Cc4nncn4C)COC3)c1)C2=O)N1CC[C@H](F)C1 | <=1.4 | 1.41 | >=1.001 | >4 | 3.01 | >4 | 1.51 | >4 | >4 | 1.51 | 1.401 | 2.01 | 1 | >4 | 1.31 | 1 | 1 | >4.01 | 2.01 | 1.401 | IC50 [20]: < 100 nM; fold change (FC) [22]: 2.01; fold change (FC) [23]: 1.51
C[C@H](Cc1nncn1C)c1cccc(N2Cc3c(cc(CN4CC[C@](C)(O)C4)cc3C(F)(F)F)C2=O)c1 | >1.61 | >1.61 | >=1.001 | >4 | <=2 | >4 | – | 2.01 | 3.01 | 1.31 | 1.401 | – | – | >4 | 1.01 | – | – | >4.01 | 2.01 | 1.201 | Kd [24]: < 100 nM; IC50 [20]: < 100 nM
Cn1cnnc1[C@@H]1C[C@@H]1c1cccc(N2Cc3c(cccc3C(F)(F)F)C2=O)c1 | <=1.4 | <=1.4 | 0.601 | <=2 | <=2 | 2.01 | 1 | <=1.5 | <=2 | >=1.76 | <=1.2 | 2.01 | 1 | >4 | >=1.76 | 1 | 1 | <=2.5 | 1.01 | <=1.2 | fold change (FC) [22]: 1; fold change (FC) [23]: 1.51
Cn1cnnc1CC1(c2cccc(N3Cc4c(cc(CN5CC(F)C5)cc4C(F)(F)F)C3=O)c2)COC1 | >1.61 | >1.61 | >=1.001 | >4 | 2.01 | >4 | 1 | 2.01 | 3.01 | 1.31 | 1.401 | 1 | 1 | >4 | 1.31 | <1 | 1 | 2.51 | 2.01 | 1.201 | IC50 [20]: < 100 nM; fold change (FC) [22]: <1; fold change (FC) [23]: 1
